{
  "source": "patent US11162117B2",
  "about": "“Whole-cell catalytic system and applications thereof” (National Taiwan University, priority 2018, dated 2021)",
  "assay_type_in_all_cases": "cell-based, Marinobacter aquaeoli VT8",
  "key": {"AlkR protein [1]": {"tested_on": "AlkR protein", "test": "Alkane induction assay: mRFP reporter in E. coli JM109 carrying psb4K5-alkR-mRFP plasmid (flow cytometry)", "description": "(§1) E. coli JM109 carrying the psb4K5-alkR-mRFP plasmid was cultured overnight at 37° C. and 125-150 rpm in 3 mL of LB medium containing 50 μg/mL kanamycin. The overnight culture was diluted 1000-fold in LB medium in a 100 mL Hinton's flask and cultured at 37° C. To induce the expression of red fluorescent protein, 1% (v/v) of the various indicated hydrocarbons was added to the culture when the absorbance at 600 nm (O.D.600) reached about 0.6. At 0, 3, 6, 9, and 12 hours after the induction, 500 μL of the abovementioned bacterial culture was collected and centrifuged to obtain a cell pellet, which was washed twice and resuspended with phosphate buffer saline (PBS). Flow cytometry (BD FACSCanto II) was used to measure the mean fluorescence intensity of the cells and the distribution of cells with different fluorescence intensities (an excitation wavelength at 532 nm and an emission wavelength at 588 nm). For the E. coli JM109 that additionally carrying an expression vector of an alkane transporter, rhamnose was first added to the bacterial culture at an O.D.600 of about 0.6, and 1% (v/v) of the various indicated hydrocarbons was added three hours thereafter.\nFirst, E. coli JM109 was transformed with the psb4K5-alkR-mRFP plasmid shown in FIG. 1, which was a reporter plasmid including the alkR gene, the gene encoding the red fluorescent protein, and the promoter thereof. […] At 0, 3, 6, 9, and 12 hours after the induction, the mean fluorescence intensity and fluorescence distribution of E. coli cells were measured by flow cytometry. […]\nIt was also studied whether the medium-chain or long-chain alkane terminal oxidation products would inhibit the activating effect of the AlkR protein on gene expression. In the alkane induction assay using n-dodecane as the inducer, 0.1% (v/v) or 1% (v/v) 1-dodecanol was additionally added to the E. coli culture, and the mean fluorescence intensity of the E. coli cells was measured at 6 and 12 hours after the induction, with the results shown in FIG. 10."}, "CYP153A operon [2]": {"tested_on": "CYP153A operon", "test": "CYP153A expression in recombinant E. coli carrying pBBR1-CYPLR plasmid (SDS-PAGE, CO difference spectroscopy)", "details": "1% (v/v) methyl laurate, pBBR1-CYPLR vs pBBR1-alkR plasmid", "description": "E. coli JM109 carrying the pBBR1-CYPLR plasmid or the pBBR1-alkR plasmid was overnight cultured at 37° C. and 125-150 rpm in 3 mL of LB medium containing 50 μg/mL kanamycin. The overnight culture was diluted 1000-fold in 3 mL of LB medium containing 50 μg/mL kanamycin and cultured at 37° C. 1% (v/v) methyl laurate was added to the culture at an O.D.600 of about 0.6 and a further incubation at 30° C. was carried out for 12 hours. The cell pellet obtained by centrifuging the abovementioned bacterial culture was washed and resuspended with PBS, and then subjected to protein expression analysis by sodium dodecyl sulfate polyacrylamide gel electrophoresis (SDS-PAGE) or carbon monoxide (CO) difference spectroscopy.\nSamples of bacterial cells were mixed with sample buffer (50 mM Tris-HCl, pH 6.8, 100 mM dithiothreitol (DTT), 2% SDS, 0.1% bromophenol blue, 10% glycerol) and boiled for 10 minutes. […]\nIt was studied whether CYP153A expression in the recombinant E. coli carrying the reconstructed CYP153A operon from M. aquaeoli VT8 would be induced by medium-chain or long-chain fatty acid methyl esters. […] At 12 hours after the induction, the expression of CYP153A was analyzed by SDS-PAGE, and the protein molecular size and activity of the cytochrome P450 consisting of CYP153A, ferredoxin, and ferredoxin reductase were verified by carbon monoxide difference spectroscopy."}, "AlkR protein [3]": {"tested_on": "AlkR protein", "test": "Alkane induction assay in E. coli JM109 carrying psb4K5-alkR-mRFP and rhamnose-inducible psb3C5-rha-weak alkL (or mock psb3C5-rha) plasmid", "details": "for expression of red fluorescent protein (mean fluorescence intensity) compared to no rhamnose addition: AlkL plasmid, 0.01% (w/v) rhamnose then 1% (v/v) n-tetradecane, 6 h after induction, FIG. 14", "description": "as §1\nThis characteristic might prevent the recombinant microorganism including the CYP153A operon from being induced by the medium-chain or long-chain alkanes or medium-chain or long-chain fatty acid methyl esters and producing the medium-chain or long-chain alkane terminal oxidation products. In order to promote the entry of medium-chain or long-chain alkanes into cells, the recombinant microorganism of the present invention may further express an alkane transporter. The AlkL protein of P. putida GPol is an exemplary alkane transporter used in this example to investigate the effects of alkane transporter expression on the uptake of medium-chain or long-chain alkanes or medium-chain or long-chain fatty acid methyl esters by the recombinant microorganisms. The AlkL protein is cytotoxic and its expression should be tightly regulated. […] At 6 hours after the induction, the mean fluorescence intensity of E. coli cells was measured by flow cytometry.\nThe AlkL protein was also tested for the ability to promote the uptake of various medium-chain or long-chain alkanes and methyl laurate by microbial cells. […] After 3 hours of incubation, 1% (v/v) n-octane, n-decane, n-dodecane, n-tetradecane, n-hexadecane, n-octadecane, or methyl laurate was added to induce the expression of red fluorescent protein, and the mean fluorescence intensity and fluorescence distribution of E. coli cells were measured by flow cytometry 6 hours after the induction. […]"}, "CYP153A operon [4]": {"tested_on": "CYP153A operon", "test": "n-Octane-induced 1-octanol production by recombinant E. coli carrying pBBR1-CYPLR plasmid (gas chromatography)", "details": "1% (v/v) n-octane; 12 h after induction; pBBR1-CYPLR vs pBBR1-alkR plasmid; FIG. 13", "description": "The medium-chain or long-chain alkane terminal oxidation product in the sample was analyzed qualitatively and quantitatively by gas chromatography. The analysis of alkanols and alkanediols was described as follows, with 1-octanol taken as example. 10 mg of 1,8-octanediol was added as an internal standard to 10 mL of the collected bacterial culture, and the mixture was extracted twice with double volumes of ethyl acetate. […] The obtained product was analyzed for composition by Varian CP-3800 gas chromatograph equipped with a DB-5 column and a flame ionization detector (FID). […] Alkanoic acids, alkanedioic acids, or alcohol acids were analyzed similarly as described above. In one embodiment of the present invention, 12-hydroxydodecanoic acid was analyzed using dodecanol as the internal standard.\nIt was studied whether the recombinant E. coli carrying the reconstructed CYP153A operon from M. aquaeoli VT8 would be induced to express the cytochrome P450 with oxidative activity and produce medium-chain or long-chain alkane terminal oxidation products in response to medium-chain or long-chain alkanes. […] At 12 hours after the induction, the production of 1-octanol in the bacterial culture was analyzed by gas chromatography."}},
  "data": [
    {"smiles": "CCCCCCCCCCCCO", "note": "[1-dodecanol]", "values": [
      {"measurement": "inhibition of n-dodecane-induced red fluorescent protein expression", "setting": "AlkR protein [1]; 0.1% or 1% (v/v) 1-dodecanol added with 1% n-dodecane inducer, 6 and 12 h, FIG. 10", "result": "did not inhibit the expression of red fluorescent protein"}
    ]},
    {"smiles": "CCCCCCCCCCCC(=O)OC", "note": "[methyl laurate]", "values": [
      {"measurement": "expression of red fluorescent protein (mean fluorescence intensity) relative to control group", "setting": "AlkR protein [1]; 1% (v/v) inducer, 0-12 h, recombinant E. coli JM109, vs untreated control, FIG. 8", "result": "induced the expression of red fluorescent protein"},
      {"measurement": "whole-cell carbon monoxide difference spectrum (400-500 nm)", "setting": "CYP153A operon [2]; 12 h, FIGS. 12A-12B", "result": "absorption peak at about 450 nm"},
      {"measurement": "CYP153A expression by SDS-PAGE", "setting": "CYP153A operon [2]; 12 h after induction, FIG. 11", "result": "expressed the CYP153A"},
      {"measurement": "expression of red fluorescent protein in control groups (mock vector) vs non-induced groups", "setting": "AlkR protein [3]; psb3C5-rha mock vector, 0.01% rhamnose 3 h then 1% (v/v) inducer 6 h, FIG. 15", "result": "induce significantly more expression of the red fluorescent protein"}
    ]},
    {"smiles": "CCCCCCCC", "note": "[n-octane]", "values": [
      {"measurement": "number of E. coli cells induced to express red fluorescent protein (fluorescence distribution histograms)", "setting": "AlkR protein [1]; 1% (v/v) alkane, 0 vs 6 h after induction, FIGS. 9A-9F", "result": "more E. coli cells were induced to express the red fluorescent protein"},
      {"measurement": "induction of cytochrome P450 with oxidative activity (1-octanol production, gas chromatogram)", "setting": "CYP153A operon [4]", "result": "additional peak at the retention time of 1-octanol"}
    ]},
    {"smiles": "CCCCCCCCCCCCCC", "note": "[n-tetradecane]", "values": [
      {"measurement": "expression of red fluorescent protein (mean fluorescence intensity) compared to no rhamnose addition", "setting": "AlkR protein [3]", "result": "induced significantly more expression of the red fluorescent protein"},
      {"measurement": "expression of red fluorescent protein in E. coli cells expressing both AlkL and AlkR proteins vs control groups", "setting": "AlkR protein [3]; psb3C5-rha-weak alkL plasmid, 0.01% rhamnose 3 h then 1% (v/v) alkane 6 h, FIG. 15", "result": "more effective in inducing the expression of red fluorescent protein"}
    ]},
    {"smiles": "C[C@H](O)[C@H](O)[C@@H](O)[C@@H](O)C=O", "note": "[rhamnose, reference compound]", "values": [
      {"measurement": "expression of red fluorescent protein (mean fluorescence intensity) compared to no rhamnose addition", "setting": "AlkR protein [3]", "result": "induced significantly more expression of the red fluorescent protein"}
    ]}
  ]
}
